From article PMC6430017, “Structural and chemical insights into the covalent-allosteric inhibition of the protein kinase Akt” (Chemical Science, 2019)
Where two headings read alike, the source gives them in different places.

Assays:
Experiment in all cases: SelectScreen Z'LYTE kinase profiling
Type in all cases: biochemical
AKT2 (PKB beta) = AKT2 (PKB beta) (Homo sapiens, UniProt P31751)
STK4 (MST1) = target: T1, STK4 (MST1) (Homo sapiens, UniProt Q13043); conditions: ATP at apparent KM
T1 sequence (Q13043 1-487): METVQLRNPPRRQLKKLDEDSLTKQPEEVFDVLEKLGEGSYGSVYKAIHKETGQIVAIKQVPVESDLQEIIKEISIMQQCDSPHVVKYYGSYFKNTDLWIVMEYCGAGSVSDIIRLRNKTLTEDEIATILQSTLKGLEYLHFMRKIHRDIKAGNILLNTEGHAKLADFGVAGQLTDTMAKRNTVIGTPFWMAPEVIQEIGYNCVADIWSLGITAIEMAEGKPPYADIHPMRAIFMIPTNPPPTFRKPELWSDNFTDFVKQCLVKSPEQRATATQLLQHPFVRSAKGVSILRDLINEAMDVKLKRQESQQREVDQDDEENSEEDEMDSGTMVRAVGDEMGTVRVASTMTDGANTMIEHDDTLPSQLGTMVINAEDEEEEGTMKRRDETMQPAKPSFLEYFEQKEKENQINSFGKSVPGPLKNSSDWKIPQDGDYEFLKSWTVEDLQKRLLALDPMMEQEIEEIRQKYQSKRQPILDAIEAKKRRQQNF

CHEK1 (CHK1) = target: T2, CHEK1 (CHK1) (Homo sapiens, UniProt O14757); conditions: ATP at apparent KM
T2 sequence (O14757 1-476): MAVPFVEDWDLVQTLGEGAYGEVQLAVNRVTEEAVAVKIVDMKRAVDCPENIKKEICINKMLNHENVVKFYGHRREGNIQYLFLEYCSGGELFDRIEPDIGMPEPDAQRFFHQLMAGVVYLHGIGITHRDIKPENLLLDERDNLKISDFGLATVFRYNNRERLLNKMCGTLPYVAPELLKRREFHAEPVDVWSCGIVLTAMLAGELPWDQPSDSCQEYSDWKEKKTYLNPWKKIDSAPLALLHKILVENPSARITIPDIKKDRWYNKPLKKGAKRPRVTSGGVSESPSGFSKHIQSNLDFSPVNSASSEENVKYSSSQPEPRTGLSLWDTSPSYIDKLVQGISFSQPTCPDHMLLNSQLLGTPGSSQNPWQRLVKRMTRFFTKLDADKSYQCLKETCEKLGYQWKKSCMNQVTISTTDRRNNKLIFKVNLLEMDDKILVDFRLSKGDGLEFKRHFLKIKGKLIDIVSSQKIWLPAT
Description: (§1) protein kinases at a compound concentration of 1 µM. Measurements were performed in duplicates
(§2) and at the particular apparent ATP KM of each individual kinase employing the activity based Z’LYTE®
(§3) kinase assay of the SelectScreen® Kinase Profiling Services (ThermoFisher Scientific).
(§4) kinases at a compound concentration of 1 µM. Measurements were performed in duplicates and at
(§5) the particular apparent ATP KM of each individual kinase employing the activity based Z’LYTE® kinase
(§6) assay of the SelectScreen® Kinase Profiling Services (ThermoFisher Scientific).

ROCK2 = ROCK2 (Homo sapiens, UniProt O75116); conditions: ATP at apparent KM
ROCK2, sequence (O75116 whole entry): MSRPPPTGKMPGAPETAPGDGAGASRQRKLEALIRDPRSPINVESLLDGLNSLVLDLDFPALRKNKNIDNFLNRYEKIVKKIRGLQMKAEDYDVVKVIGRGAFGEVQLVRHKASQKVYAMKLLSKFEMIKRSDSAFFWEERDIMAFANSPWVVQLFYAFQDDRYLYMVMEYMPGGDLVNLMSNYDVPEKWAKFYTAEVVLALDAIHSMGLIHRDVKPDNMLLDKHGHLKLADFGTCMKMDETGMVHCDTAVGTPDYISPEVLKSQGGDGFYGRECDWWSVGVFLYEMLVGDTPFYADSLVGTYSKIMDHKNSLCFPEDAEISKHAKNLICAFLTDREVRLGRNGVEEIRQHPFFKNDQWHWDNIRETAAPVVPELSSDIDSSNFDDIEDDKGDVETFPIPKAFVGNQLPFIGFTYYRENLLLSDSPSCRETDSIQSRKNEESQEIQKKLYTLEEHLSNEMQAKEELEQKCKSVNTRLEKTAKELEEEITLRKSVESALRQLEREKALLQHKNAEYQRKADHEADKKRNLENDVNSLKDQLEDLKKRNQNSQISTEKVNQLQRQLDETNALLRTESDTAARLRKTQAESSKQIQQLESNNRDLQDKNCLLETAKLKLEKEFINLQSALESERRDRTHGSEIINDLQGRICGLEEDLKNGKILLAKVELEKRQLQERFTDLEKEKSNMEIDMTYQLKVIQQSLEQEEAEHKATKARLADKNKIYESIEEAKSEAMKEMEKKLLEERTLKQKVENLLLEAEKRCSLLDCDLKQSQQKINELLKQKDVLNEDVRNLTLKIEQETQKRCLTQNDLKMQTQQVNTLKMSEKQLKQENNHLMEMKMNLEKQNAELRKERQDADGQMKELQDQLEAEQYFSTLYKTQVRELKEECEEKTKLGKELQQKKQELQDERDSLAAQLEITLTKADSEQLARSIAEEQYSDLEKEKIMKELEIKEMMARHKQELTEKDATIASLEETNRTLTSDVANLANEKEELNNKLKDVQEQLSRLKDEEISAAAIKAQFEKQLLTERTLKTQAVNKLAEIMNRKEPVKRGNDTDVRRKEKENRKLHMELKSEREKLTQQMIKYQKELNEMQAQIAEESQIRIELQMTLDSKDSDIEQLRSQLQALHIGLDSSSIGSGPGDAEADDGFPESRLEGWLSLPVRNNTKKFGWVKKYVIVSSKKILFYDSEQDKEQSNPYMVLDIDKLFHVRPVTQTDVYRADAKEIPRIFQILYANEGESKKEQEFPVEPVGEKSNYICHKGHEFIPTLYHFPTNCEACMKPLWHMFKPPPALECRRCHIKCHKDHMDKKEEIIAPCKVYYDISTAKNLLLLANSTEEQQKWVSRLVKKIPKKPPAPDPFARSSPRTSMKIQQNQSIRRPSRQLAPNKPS
Description: as §1, §2, §3, §4, §5, §6

FRAP1 (mTOR) = FRAP1 (mTOR) (Homo sapiens, UniProt P42345); conditions: ATP at apparent KM
Description: as §1, §2, §3, §4, §5, §6

PDK1 Direct = target: T3, PDK1 Direct (Homo sapiens, UniProt O15530); conditions: ATP at apparent KM
T3 sequence (O15530 1-556): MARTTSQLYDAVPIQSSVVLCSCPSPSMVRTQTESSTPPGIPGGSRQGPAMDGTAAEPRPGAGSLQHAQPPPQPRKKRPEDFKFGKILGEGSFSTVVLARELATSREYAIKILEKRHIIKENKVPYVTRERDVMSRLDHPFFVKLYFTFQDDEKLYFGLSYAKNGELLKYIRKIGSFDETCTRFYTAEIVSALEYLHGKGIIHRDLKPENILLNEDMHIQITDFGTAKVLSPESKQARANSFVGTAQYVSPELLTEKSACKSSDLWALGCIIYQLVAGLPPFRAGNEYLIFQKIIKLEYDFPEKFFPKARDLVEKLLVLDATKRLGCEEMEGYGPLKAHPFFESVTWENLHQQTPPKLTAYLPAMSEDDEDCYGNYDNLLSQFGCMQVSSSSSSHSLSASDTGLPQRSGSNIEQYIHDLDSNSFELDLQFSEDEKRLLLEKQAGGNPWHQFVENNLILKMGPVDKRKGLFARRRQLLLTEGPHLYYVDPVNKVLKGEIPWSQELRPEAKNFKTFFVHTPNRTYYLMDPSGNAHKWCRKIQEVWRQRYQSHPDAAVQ
Description: as §1, §2, §3, §4, §5, §6

EPHB4 = target: T4, EPHB4 (Homo sapiens, UniProt P54760); conditions: ATP at apparent KM
T4 sequence (P54760 16-987): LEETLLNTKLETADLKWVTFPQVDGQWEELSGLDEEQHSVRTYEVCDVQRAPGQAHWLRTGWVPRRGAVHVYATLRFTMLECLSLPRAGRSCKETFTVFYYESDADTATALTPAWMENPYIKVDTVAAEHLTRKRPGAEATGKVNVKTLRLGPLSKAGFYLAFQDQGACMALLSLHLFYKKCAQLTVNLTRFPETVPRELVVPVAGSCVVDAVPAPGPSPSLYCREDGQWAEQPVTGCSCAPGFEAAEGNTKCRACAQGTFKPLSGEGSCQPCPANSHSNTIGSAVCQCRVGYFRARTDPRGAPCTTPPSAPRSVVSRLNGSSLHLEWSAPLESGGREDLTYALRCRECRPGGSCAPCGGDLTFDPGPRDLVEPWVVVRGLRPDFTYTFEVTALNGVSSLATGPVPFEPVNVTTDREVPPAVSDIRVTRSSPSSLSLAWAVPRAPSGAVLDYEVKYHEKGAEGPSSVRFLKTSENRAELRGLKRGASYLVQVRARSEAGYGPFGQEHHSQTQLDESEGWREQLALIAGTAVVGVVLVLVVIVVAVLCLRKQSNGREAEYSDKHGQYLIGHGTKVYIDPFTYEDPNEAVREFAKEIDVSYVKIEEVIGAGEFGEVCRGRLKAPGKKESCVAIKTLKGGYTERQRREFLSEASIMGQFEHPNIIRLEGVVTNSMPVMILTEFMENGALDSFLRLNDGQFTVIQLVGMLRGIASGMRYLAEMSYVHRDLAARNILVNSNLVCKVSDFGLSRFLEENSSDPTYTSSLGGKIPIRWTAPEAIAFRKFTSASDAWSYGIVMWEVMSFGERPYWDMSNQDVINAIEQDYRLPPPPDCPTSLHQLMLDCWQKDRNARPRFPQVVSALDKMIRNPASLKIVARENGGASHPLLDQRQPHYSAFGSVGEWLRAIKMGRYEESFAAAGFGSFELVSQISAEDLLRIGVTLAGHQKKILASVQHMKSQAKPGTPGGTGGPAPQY
Description: as §1, §2, §3, §4, §5, §6

PRKCB2 (PKC beta II) = PRKCB2 (PKC beta II) (Homo sapiens, UniProt P05771); conditions: ATP at apparent KM
PRKCB2 (PKC beta II), sequence (P05771 1-673 isoform P05771-2): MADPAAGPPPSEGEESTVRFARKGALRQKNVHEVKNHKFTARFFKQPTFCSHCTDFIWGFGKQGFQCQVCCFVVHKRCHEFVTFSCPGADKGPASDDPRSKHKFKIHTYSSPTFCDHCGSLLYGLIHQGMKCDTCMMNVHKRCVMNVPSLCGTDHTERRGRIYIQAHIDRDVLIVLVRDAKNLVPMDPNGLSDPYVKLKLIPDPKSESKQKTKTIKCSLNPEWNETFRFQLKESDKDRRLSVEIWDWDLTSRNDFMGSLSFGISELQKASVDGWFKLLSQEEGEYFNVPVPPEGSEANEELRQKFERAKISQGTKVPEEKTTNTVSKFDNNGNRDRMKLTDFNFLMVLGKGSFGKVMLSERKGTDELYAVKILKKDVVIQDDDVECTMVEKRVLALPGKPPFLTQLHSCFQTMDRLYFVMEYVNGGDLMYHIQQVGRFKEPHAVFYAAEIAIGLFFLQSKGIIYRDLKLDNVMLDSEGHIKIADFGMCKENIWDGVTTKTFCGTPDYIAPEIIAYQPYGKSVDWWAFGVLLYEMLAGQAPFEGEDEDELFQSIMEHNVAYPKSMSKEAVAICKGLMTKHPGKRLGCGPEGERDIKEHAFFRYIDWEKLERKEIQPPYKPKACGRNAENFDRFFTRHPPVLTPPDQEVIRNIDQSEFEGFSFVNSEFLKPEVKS
Description: as §1, §2, §3, §4, §5, §6

AKT2 (PKB beta), sequence (P31751 whole entry): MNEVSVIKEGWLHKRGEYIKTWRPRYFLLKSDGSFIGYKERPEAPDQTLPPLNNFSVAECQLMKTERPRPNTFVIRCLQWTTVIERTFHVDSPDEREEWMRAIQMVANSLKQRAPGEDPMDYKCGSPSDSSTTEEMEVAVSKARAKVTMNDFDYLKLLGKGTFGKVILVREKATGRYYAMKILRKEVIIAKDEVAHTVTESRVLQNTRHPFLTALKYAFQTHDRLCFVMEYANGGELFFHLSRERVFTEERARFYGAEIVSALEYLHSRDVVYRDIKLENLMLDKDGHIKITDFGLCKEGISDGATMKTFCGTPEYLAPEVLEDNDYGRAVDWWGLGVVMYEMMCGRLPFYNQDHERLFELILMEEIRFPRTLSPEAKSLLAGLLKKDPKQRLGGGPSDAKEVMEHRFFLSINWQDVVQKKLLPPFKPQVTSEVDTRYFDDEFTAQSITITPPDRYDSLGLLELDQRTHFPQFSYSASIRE

| SMILES | inhibition at 1 µM (AKT2 (PKB beta)) | inhibition at 1 µM (STK4 (MST1)) | inhibition at 1 µM (CHEK1 (CHK1)) | inhibition at 1 µM (ROCK2) | inhibition at 1 µM (FRAP1 (mTOR)) | inhibition at 1 µM (PDK1 Direct) | inhibition at 1 µM (EPHB4) | inhibition at 1 µM (PRKCB2 (PKC beta II)) | inhibition at 1 µM (AKT2 (PKB beta); 1 µM, ATP at apparent KM, read-out: % inhibition) |
| --- | --- | --- | --- | --- | --- | --- | --- | --- | --- |
| C=CC(=O)Nc1cc(NC(=O)NC2CCN(Cc3ccc(-c4nc5cc[nH]c(=O)c5cc4-c4ccccc4)cc3)CC2)ccc1Cl [compound 27] | 80% | 14% | 8% | 31% | -2% | 3% | 4% | -12% |  |
| C=CC(=O)Nc1cccc(C(=O)NC2CCN(Cc3ccc(-c4nc5cc[nH]c(=O)c5cc4-c4ccccc4)cc3)CC2)c1 [30b] | 76% | 7% | 9% | 21% | 1% | 1% | 1% | -1% |  |
| C=CC(=O)Nc1ccc2c(c1)n(C1CCN(Cc3ccc(-c4nc5cc[nH]c(=O)c5cc4-c4ccccc4)cc3)CC1)c(=O)n2C [24b] |  | 6% | -3% | 9% | 8% | 8% | 4% | -5% | 97% |
